From patent publication US10912776B2, “Methods of treating cancer” (Corvus Pharmaceuticals, Inc., priority 2015, dated 2021)
Where “and” joins values, the source holds several entries; their conditions need not be identical. Equal values may be shown once. Entries after “also recorded” stand apart in the source; their conditions may differ.

What was measured:
[1] = target: T1, A2AR (Homo sapiens, UniProt P29274); experiment: IL-2 and IFNγ secretion from activated primary human PBMCs (AlphaLISA); type: cell-based; design: Blood samples were derived from patients and processed using the following protocol; endogenous in cells; host or cells: whole blood B cells and T cells of treated subjects; settings: CPI-444 1 μM; NECA or CGS21680 1 μM; anti-CD3/anti-CD28 48 hours
Description: Purified anti-CD3 and anti-CD28 monoclonal antibodies (1 ug/ml) were then added to activate T cells for 48 hours.
Purified anti-CD3 and anti-CD28 monoclonal antibodies (1 ug/ml) were then added to activate T cells for 48 hours. In this study, AlphaLISA assays (PerkinElmer) analyzed on an EnVision MultiLabel Reader were used to measure cytokine release according to the manufacturer's instructions.

[2] = tested on: MC38 cells; experiment: XTT cell viability/proliferation, MC38; type: cell-based, mouse; settings: 10 µM to 1 pM, 24 hours
Description: (§1) Staurosporine, a well-characterized inducer of apoptosis, was included as a positive control for cell death. Cell viability/proliferation was measured by XTT. In this assay, XTT salts are cleaved by metabolically active (viable) cells, thereby producing a colorimetric change in the culture media that can be quantified by measuring absorbance at 405 nm and 620 nm on a spectrophotometer.

[3] = tested on: MC38 colon cancer cells; experiment: Syngeneic MC38 mouse colon carcinoma model, CPI-444 dose response and rechallenge; type: in vivo
Description: 100% protected from rechallenge. […] These mice were challenged with the new engraftment of MC38 tumor cells.
MC38 colon cancer cells were subcutaneously injected onto the backs of syngeneic C57BL/6 mice.

[4] = Phase 1/1b clinical trial in solid tumor patients (safety, efficacy, blood biomarkers); type: in vivo, human
Description: FIGS. 19A and 19B: T Cell activation in treated subjects. Whole blood was collected on Day 1 of Cycles 1, 2, 4 & 8 for flow analysis. The percentage of CD4 and CD8 T cells that stained PD-1+(FIG. 19A) or CD45RA− (memory/effector cells) (FIG. 19B) is shown. Each line represents a single subject across time.
Whole blood was collected on Day 1 of Cycles 1 and 2 and PBMCs were prepared. DNA was extracted from PBMCs and sequenced for TCRβ repertoire by Adaptive Biotechnologies. […] Morisita Index measures T cell repertoir similarity comparing pre- and post-dose PBMCs. A Morisita Index of 1 is equal to identity, indicating no longitudinal change. Morisita Index distribution in single agent and combination cohorts (FIG. 20B). Graph showing Morisita Index by cohort (FIG. 20C). […] Changes were driven predominantly by TCR clone expansion (clonality).
After a dose selection stage, pts are treated in 10 disease specific cohorts (5 single agent and 5 combination). Cohorts may be expanded based on response criteria: complete response, partial response or stable disease (SD). Biomarkers are evaluated including immune cells by flow cytometry in peripheral blood and pre/post treatment tumor biopsies as well as adenosine pathway modulation by immunohistochemistry and gene expression.
In step 1 of the trial, patients were dosed with either 100 mg BID for 14 days out of a 28 day cycle, 100 mg BID for 28 days, 200 mg QD for 14 days or 50 mg or 100 mg BID for 14 days in combination with […]® (840 mg Q2W). Pharmacodynamic analysis was conducted on peripheral blood cells to inform dose selection. Step 1 of Phase1/1b was fully enrolled (n=48) and dose was selected (100 mg BID) based on pharmacodynamic analysis of A2AR pathway.

[5] = target: T1, A2AR; experiment: pERK levels in human CD4+ T cells after TCR cross-linking; settings: NECA 1 μM
[6] = target: T1, A2AR; experiment: cAMP production in primary human T cells stimulated with NECA (LANCE Ultra cAMP); type: cell-based; design: Blood samples were derived from patients and processed using the following protocol; endogenous in cells; host or cells: whole blood B cells and T cells of treated subjects
Description: Adenosine signaling through A2AR leads to increases in the levels of cAMP.
T cells were isolated from human PBMC by negative selection and activated via CD3/CD28 stimulation for 48 hours to induce A2AR expression. Stimulated T cells were then “rested” for 24 hours by removal of CD3/CD28 stimulation in order to minimize background levels of cAMP.

[7] = tested on: CT26 cells; experiment: XTT cell viability/proliferation, CT26; type: cell-based, mouse; settings: 10 µM to 1 pM, 24 hours
Description: as §1

[8] = tested on: EL4 cells; experiment: Syngeneic EL4 mouse lymphoma model; type: in vivo; settings: 10, 30, 100 mg/kg daily oral gavage
Description: Syngeneic C57BL/6 female mice (8-10 weeks old) were injected (via subcutaneous route) with EL4 cells.

[9] = non-oncology indications; 75 subjects; cited from earlier work
[10] = target: T1, A2AR; experiment: NECA-induced phospho-CREB in fresh PBMCs (B cell population); settings: primarily B cell population
[11] = tested on: CT26 mouse colon cancer cells; settings: CPI-444 100 mg/kg oral; anti-PD-1 100 ug/mouse i.p.
Description: CT26 mouse colon cancer cells were engrafted onto the back of syngeneic male Balb/c mice. […] Treatment continued for 12 days.

[12] = tested on: MC38 mouse colon cancer cells; experiment: Syngeneic MC38 mouse colon cancer model, CPI-444 in combination with anti-PD-L1; type: in vivo
Description: Combo eliminates tumors in 50% of mice. […] Treatment continued for 12 days.
FIGS. 16A and 16B: MC38 Model: Established tumors eliminated in 8/9 mice.
Treatment continued for more than 9 days (FIG. 23C). […] T cell depletion was verified by flow analysis. FIGS. 23A and 23B show the tumor volume at different time points since engraftment for the dosing cohorts.
Treatment continued for 12 days. […] T cell depletion was verified by flow analysis. FIGS. 23A and 23B show tumor volume at different time points since engraftment for the dosing cohorts.
Treatment continued for more than 9 days. […] T cell depletion was verified by flow analysis. FIGS. 23A and 23B show tumor volume at different time points since engraftment for the dosing cohorts.

[13] = target: T1, A2AR; experiment: NECA-induced pCREB in whole blood B cells and T cells of treated subjects (flow cytometry); type: in vivo; design: Blood samples were derived from patients and processed using the following protocol; endogenous in cells; host or cells: whole blood B cells and T cells of treated subjects
Description: Control samples were treated with phorbol myristate acetate (PMA).
[…] control samples were treated with phorbol myristate acetate (PMA).
On day 14, blood was collected prior to dosing (0 hr, trough) and for a time course post-dose (1.5, 3, 5.5, 8 hr) (FIGS. 26-28). The level of signaling was determined and the percent inhibition on Day 14 compared to Day 1 pre-treatment was calculated.

[14] = tested on: EL4 cells; experiment: XTT cell viability/proliferation, EL4; type: cell-based, mouse; settings: 10 µM to 1 pM, 24 hours
Description: as §1

T1 sequence (P29274 whole entry): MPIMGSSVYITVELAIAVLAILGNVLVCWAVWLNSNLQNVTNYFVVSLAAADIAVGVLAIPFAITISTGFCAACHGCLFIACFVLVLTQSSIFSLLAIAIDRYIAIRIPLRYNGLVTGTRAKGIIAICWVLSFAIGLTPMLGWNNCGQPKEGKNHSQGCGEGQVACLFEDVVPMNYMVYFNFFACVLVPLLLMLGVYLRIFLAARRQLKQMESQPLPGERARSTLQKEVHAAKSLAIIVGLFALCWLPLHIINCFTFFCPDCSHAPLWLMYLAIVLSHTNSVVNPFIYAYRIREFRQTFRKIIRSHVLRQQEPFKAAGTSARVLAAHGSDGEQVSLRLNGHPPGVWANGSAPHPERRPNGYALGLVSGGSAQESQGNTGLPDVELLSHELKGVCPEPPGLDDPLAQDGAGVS

SMILES: Cc1ccc(-c2nc(N)nc3c2nnn3Cc2cccc(COC3CCOC3)n2)o1 (stereo not drawn) [CPI-444]
- IFNγ secretion in presence of A2AR agonist [1]: restored IL-2 and IFNγ secretion back to levels observed in the absence of exogenous adenosine signaling
- IL-2 secretion in presence of A2AR agonist [1]: restored IL-2 and IFNγ secretion back to levels observed in the absence of exogenous adenosine signaling
- Specific Absorbance (XTT cell viability/proliferation) [2]: No significant decrease in the Specific Absorbance
- tumor growth ([3]; 1 mg/kg daily oral gavage for 28 days): did not inhibit tumor growth
- tumor growth ([3]; 10 mg/kg daily oral gavage for 28 days): significantly inhibits the growth; also recorded: significant inhibition of tumor growth
- tumor growth ([3]; 100 mg/kg daily oral gavage for 28 days): significantly inhibits the growth; also recorded: significant inhibition of tumor growth
- mice with tumors eliminated ([3]; CPI-444 dose response study): 30%
- complete tumor regression ([3]; all cohorts (1, 10, 100 mg/kg)): complete tumor regression was observed in a subset of mice within all cohorts
- tumor growth after rechallenge with MC38 cells ([3]; cured mice, no additional CPI-444 treatment): fully inhibited; also recorded: fully rejected in all 9 mice
- inhibition of tumor growth (dose response) ([3]; daily CPI-444 1, 10, 100 mg/kg): dose-dependent inhibition of tumor growth; also recorded: Inhibits Growth of MC38 Tumors
- mice protected from rechallenge ([3]; new engraftment of MC38 cells, no additional CPI-444 treatment): 100%
- reoccurrence during additional 6 weeks monitoring ([3]; nine mice with complete tumor growth inhibition): No tumor growth was observed
- first efficacy assessment by CT ([4]; 2 pts (1 combination and 1 single agent), unconfirmed at 2 months): both demonstrated SD
- tolerability / treatment related adverse events ([4]; 7 pts treated to date): well tolerated with no Grade 3 or 4 treatment related adverse events; also recorded: well tolerated
- tumor response ([4]; Nivolumab-refractory lung cancer patient, 100 mg po BID×28 days/cycle): Tumor regression
- TCR repertoire changes in peripheral blood ([4]; TCRβ sequencing of PBMCs, Day 1 of Cycles 1 and 2): TCR repertoire changes were induced; also recorded: robust changes in TCR repertoire in some patients
- activated (PD-1+) CD8 cell frequencies in blood ([4]; flow analysis of whole blood): Increases in activated CD8 cell frequencies
- memory (CD45RA−) cell frequencies in blood ([4]; flow analysis of whole blood): increases
- T cell clone expansion / clonality ([4]; single agent CPI-444): Expansion of pre-existing and new T cell clones; also recorded: increased clonality
- increase in PD-1+CD8+ cells in peripheral blood compared to baseline ([4]; the two pts with SD): 1.7 fold and 2.4 fold
- pERK levels / ERK signaling in CD4+ T cells in the presence of NECA [5]: restored pERK levels in a dose-dependent manner; also recorded: Restores pERK
- cAMP production upon NECA stimulation, CPI-444 dose dependence ([6]; FIG. 6): prevented cAMP production upon NECA stimulation in a dose-dependent manner; also recorded: Inhibits cAMP Production
- production of cAMP upon NECA treatment ([6]; all levels of NECA tested (10^-5 to 10^-9 M), 10 minutes): completely blocked the production of cAMP
- Specific Absorbance (XTT cell viability/proliferation) [7]: No significant decrease in the Specific Absorbance
- tumor growth in regional lymph nodes (number and size of enlarged nodes) [8]: significant dose-dependent inhibition of tumor growth within regional lymph nodes; also recorded: significant, dose-dependent decrease in the number and size of enlarged regional lymph nodes; also recorded: Inhibits EL4 Tumor Growth In Regional Lymph Nodes
- tolerability [9]: well tolerated; also recorded: well tolerated with no significant adverse events noted
- inhibition of NECA-induced CREB phosphorylation [10]: completely inhibited; also recorded: Prevents pCREB Induction in B Cells
- tumor eradication / elimination [11]: not completely eradicated
- tumor eradication ([12]; CPI-444 100 mg/kg from Day 0, anti-PD-L1 200 ug/mouse): not completely eradicated
- tumor growth ([12]; CPI-444 100 mg/kg oral from Day 0 for 12 days, anti-PD-L1 mAb 10F.9G2 200 ug/mouse i.p. days 7, 10, 13, 16): inhibition of tumor growth
- dependence of efficacy on CD8+ T cells (T cell depletion with Anti-mCD4 / Anti-mCD8) ([12]; CPI-444 100 mg/kg, anti-PD-L1 200 ug/mouse): CD8+ T cells are required for the efficacy
- mice with tumors eliminated ([12]; FIGS. 14A and 14B title): 30%
- levels of immune checkpoints (GITR, OX40, LAG3) on tumor infiltrating lymphocytes and circulating T cells ([12]; mouse, in vivo): modulated
- inhibition of NECA-induced pCREB ([13]; 50 mg BID, Day 14): Variable inhibition; also recorded: not high enough for sustained inhibition
- change in pCREB percent inhibition between trough (0 hr) and peak (3 hr) ([13]; 100 mg BID): Little fluctuation from trough to peak
- patients with complete and sustained inhibition of NECA-induced pCREB ([13]; 100 mg BID single agent, Day 14): 7 of 7
- inhibition of pCREB / A2AR pathway ([13]; 100 mg BID, Day 14): high pCREB inhibition at trough and near complete inhibition after taking their morning dose; also recorded: highest pCREB inhibition at trough and near complete inhibition after taking their morning dose
- inhibition of NECA-induced pCREB ([13]; 200 mg QD, Day 14): Variable inhibition; also recorded: achieves high peak levels but is not maintained at trough; also recorded: partial inhibition; also recorded: attenuated
- CPI-444 plasma levels with near complete inhibition of pCREB in B cells ([13]; B cells): greater than 2,000 ng/mL
- CPI-444 plasma levels with near complete inhibition of pCREB in CD4+ T cells ([13]; T cells): greater than 2,000 ng/mL
- CPI-444 exposures at which the A2AR pathway is completely inhibited ([13]; plasma CPI-444): greater than 2000 ng/mL
- Specific Absorbance (XTT cell viability/proliferation) [14]: No significant decrease in the Specific Absorbance
